Data from patent US20260014232A1, “Pharmaceutical Composition of GLP-1 and GIP Receptor Dual Agonist and Use Thereof” (Jiangsu Hengrui Pharmaceuticals Co., Ltd., priority 2021, published 2026).
Starred links: 1 amine or outer side, 2 acyl side, 3 side chain; linkers in the order of their positions; H or OH if unused. Non-standard residues stand in square brackets, D forms with d. Residues, ends and D or L forms follow the SMILES beside them. Groups on a side chain read outwards from the residue. *: point of attachment. C20 diacid = O=C(O)CCCCCCCCCCCCCCCCCCC(=O)*; γGlu = O=C(O)[C@H](CCC(=O)[*:2])N[*:1]; AEEA = NCCOCCOCC(=O)O; Aib = CC(C)(N)C(=O)O

Test: Body weight of diet-induced-obesity mice after subcutaneous administration
Assay type: in vivo, C57BL/6 mice
Conditions: for rate of body weight change: DIO mice
Protocol: High-fat food-induced-obesity male C57BL/6 mice (weighing 35-55 g, aged 10-12 weeks, purchased from Shanghai Jiesijie Laboratory Animal Co., Ltd.) were tested. […] According to the experimental design, the body weight of each mouse was measured and recorded on day 0, day 3, day 6, and so on to day 27, the average body weight of each group of mice was calculated, and body weight change curves were plotted by taking the body weight on the first day as the standard. At the end, the fat and other visceral organs of each part of the mice were taken out and weighed, and the viscera/brain ratio for fat in each part of each mouse was calculated. The effect of the drug on the fat was determined by comparing the change in the viscera/brain ratio for fat of different parts of each group of mice.

CC[C@H](C)[C@H](NC(=O)[C@H](CCCCN)NC(=O)[C@H](CCC(=O)O)NC(=O)[C@H](CCCCNC(=O)COCCOCCNC(=O)COCCOCCNC(=O)CC[C@H](NC(=O)CCCCCCCCCCCCCCCCCCC(=O)O)C(=O)O)NC(=O)[C@H](Cc1ccc(O)cc1)NC(=O)[C@@H](NC(=O)[C@H](CO)NC(=O)[C@H](Cc1ccc(O)cc1)NC(=O)[C@H](CC(=O)O)NC(=O)[C@H](CO)NC(=O)[C@@H](NC(=O)[C@H](Cc1ccccc1)NC(=O)[C@@H](NC(=O)CNC(=O)[C@H](CCC(=O)O)NC(=O)C(C)(C)NC(=O)[C@@H](N)Cc1ccc(O)cc1)[C@@H](C)O)[C@@H](C)O)[C@@H](C)CC)C(=O)N[C@@H](C)C(=O)N[C@@H](C)C(=O)N[C@@H](CCC(N)=O)C(=O)N[C@@H](CCC(=O)O)C(=O)N[C@@H](Cc1ccccc1)C(=O)N[C@H](C(=O)N[C@@H](CC(N)=O)C(=O)N[C@@H](Cc1c[nH]c2ccccc12)C(=O)N[C@@H](CC(C)C)C(=O)N[C@@H](CC(C)C)C(=O)N[C@@H](C)C(=O)NCC(=O)NCC(=O)N1CCC[C@H]1C(=O)N[C@@H](CO)C(=O)N[C@@H](CO)C(=O)NCC(=O)N[C@@H](C)C(=O)N1CCC[C@H]1C(=O)N1CCC[C@H]1C(=O)N1CCC[C@H]1C(=O)N[C@@H](CO)C(N)=O)C(C)C [Compound 18#] (H-Y[Aib]EGTFTSDYSIYK([AEEA-AEEA-γGlu-C20 diacid])EKIAAQEFVNWLLAGGPSSGAPPPS-NH2)
rate of body weight change (3 nmol/kg s.c. every 3 days, day 0 (before administration)): 0% | rate of body weight change (3 nmol/kg s.c. every 3 days, day 1): −5% | rate of body weight change (3 nmol/kg s.c. every 3 days, day 2): −6.3% | rate of body weight change (3 nmol/kg s.c. every 3 days, day 3): −5.8% | rate of body weight change (3 nmol/kg s.c. every 3 days, day 4): −9.1% | rate of body weight change (3 nmol/kg s.c. every 3 days, day 5): −10.3% | rate of body weight change (3 nmol/kg s.c. every 3 days, day 6): −10% | rate of body weight change (3 nmol/kg s.c. every 3 days, day 7): −13% | rate of body weight change (3 nmol/kg s.c. every 3 days, day 8): −13.9% | rate of body weight change (3 nmol/kg s.c. every 3 days, day 9): −13.9% | rate of body weight change (3 nmol/kg s.c. every 3 days, day 10): −16.6% | rate of body weight change (3 nmol/kg s.c. every 3 days, day 11): −16.4% | rate of body weight change (3 nmol/kg s.c. every 3 days, day 12): −15.7% | rate of body weight change (3 nmol/kg s.c. every 3 days, day 13): −18.2% | rate of body weight change (3 nmol/kg s.c. every 3 days, day 14): −17.1% | rate of body weight change (3 nmol/kg s.c. every 3 days, day 15): −15.7% | rate of body weight change (3 nmol/kg s.c. every 3 days, day 16): −18.6% | rate of body weight change (3 nmol/kg s.c. every 3 days, day 17): −18.3% | rate of body weight change (3 nmol/kg s.c. every 3 days, day 18): −17.9% | rate of body weight change (3 nmol/kg s.c. every 3 days, day 19): −20.5% | rate of body weight change (3 nmol/kg s.c. every 3 days, day 20): −19.8% | rate of body weight change (3 nmol/kg s.c. every 3 days, day 21): −17.8% | rate of body weight change (3 nmol/kg s.c. every 3 days, day 22): −19.3% | rate of body weight change (3 nmol/kg s.c. every 3 days, day 23): −19.1% | rate of body weight change (3 nmol/kg s.c. every 3 days, day 24): −17.3% | rate of body weight change (3 nmol/kg s.c. every 3 days, day 25): −19.9% | rate of body weight change (3 nmol/kg s.c. every 3 days, day 26): −18.8% | rate of body weight change (3 nmol/kg s.c. every 3 days, day 27): −16.1% | rate of body weight change (3 nmol/kg s.c. every 3 days, day 28): −19.2% | rate of body weight change (10 nmol/kg s.c. every 3 days, day 0 (before administration)): 0% | rate of body weight change (10 nmol/kg s.c. every 3 days, day 1): −6.2% | rate of body weight change (10 nmol/kg s.c. every 3 days, day 2): −8.6% | rate of body weight change (10 nmol/kg s.c. every 3 days, day 3): −9.4% | rate of body weight change (10 nmol/kg s.c. every 3 days, day 4): −12.7% | rate of body weight change (10 nmol/kg s.c. every 3 days, day 5): −14.5% | rate of body weight change (10 nmol/kg s.c. every 3 days, day 6): −15% | rate of body weight change (10 nmol/kg s.c. every 3 days, day 7): −18.3% | rate of body weight change (10 nmol/kg s.c. every 3 days, day 8): −20.1% | rate of body weight change (10 nmol/kg s.c. every 3 days, day 9): −20.3% | rate of body weight change (10 nmol/kg s.c. every 3 days, day 10): −23.4% | rate of body weight change (10 nmol/kg s.c. every 3 days, day 11): −23.9% | rate of body weight change (10 nmol/kg s.c. every 3 days, day 12): −23.5% | rate of body weight change (10 nmol/kg s.c. every 3 days, day 13): −26.4% | rate of body weight change (10 nmol/kg s.c. every 3 days, day 14): −25.1% | rate of body weight change (10 nmol/kg s.c. every 3 days, day 15): −23.4% | rate of body weight change (10 nmol/kg s.c. every 3 days, day 16): −26.6% | rate of body weight change (10 nmol/kg s.c. every 3 days, day 17): −25.7% | rate of body weight change (10 nmol/kg s.c. every 3 days, day 18): −24.6% | rate of body weight change (10 nmol/kg s.c. every 3 days, day 19): −27.5% | rate of body weight change (10 nmol/kg s.c. every 3 days, day 20): −27.3% | rate of body weight change (10 nmol/kg s.c. every 3 days, day 21): −24.8% | rate of body weight change (10 nmol/kg s.c. every 3 days, day 22): −28.1% | rate of body weight change (10 nmol/kg s.c. every 3 days, day 23): −27.1% | rate of body weight change (10 nmol/kg s.c. every 3 days, day 24): −26% | rate of body weight change (10 nmol/kg s.c. every 3 days, day 25): −28.5% | rate of body weight change (10 nmol/kg s.c. every 3 days, day 26): −27.8% | rate of body weight change (10 nmol/kg s.c. every 3 days, day 27): −24.8% | rate of body weight change (10 nmol/kg s.c. every 3 days, day 28): −28.2% | rate of body weight change (100 nmol/kg s.c. every 3 days, day 0 (before administration)): 0% | rate of body weight change (100 nmol/kg s.c. every 3 days, day 1): −6.3% | rate of body weight change (100 nmol/kg s.c. every 3 days, day 2): −10.9% | rate of body weight change (100 nmol/kg s.c. every 3 days, day 3): −13.2% | rate of body weight change (100 nmol/kg s.c. every 3 days, day 4): −15.7% | rate of body weight change (100 nmol/kg s.c. every 3 days, day 5): −19.2% | rate of body weight change (100 nmol/kg s.c. every 3 days, day 6): −21.8% | rate of body weight change (100 nmol/kg s.c. every 3 days, day 7): −24.7% | rate of body weight change (100 nmol/kg s.c. every 3 days, day 8): −27.6% | rate of body weight change (100 nmol/kg s.c. every 3 days, day 9): −29.6% | rate of body weight change (100 nmol/kg s.c. every 3 days, day 10): −31.6% | rate of body weight change (100 nmol/kg s.c. every 3 days, day 11): −33.7% | rate of body weight change (100 nmol/kg s.c. every 3 days, day 12): −34.4% | rate of body weight change (100 nmol/kg s.c. every 3 days, day 13): −35.6% | rate of body weight change (100 nmol/kg s.c. every 3 days, day 14): −36.7% | rate of body weight change (100 nmol/kg s.c. every 3 days, day 15): −35.7% | rate of body weight change (100 nmol/kg s.c. every 3 days, day 17): −38.2% | rate of body weight change (100 nmol/kg s.c. every 3 days, day 18): −37.8% | rate of body weight change (100 nmol/kg s.c. every 3 days, day 19): −38.5% | rate of body weight change (100 nmol/kg s.c. every 3 days, day 20): −39% | rate of body weight change (100 nmol/kg s.c. every 3 days, day 21): −37.4% | rate of body weight change (100 nmol/kg s.c. every 3 days, day 22): −38.3% | rate of body weight change (100 nmol/kg s.c. every 3 days, day 23): −38% | rate of body weight change (100 nmol/kg s.c. every 3 days, day 24): −36.8% | rate of body weight change (100 nmol/kg s.c. every 3 days, day 25): −38.6% | rate of body weight change (100 nmol/kg s.c. every 3 days, day 26): −38.9% | rate of body weight change (100 nmol/kg s.c. every 3 days, day 27): −36.8% | rate of body weight change (100 nmol/kg s.c. every 3 days, day 28): −37.9% | body weight reduced (high-fat food-induced-obesity mice, 10 nmol/kg, day 27): more than 20.0%
